{"source": "patent US20130288978A1", "about": "“DERMATOPONTIN-ACTIVATING PEPTIDES AND COSMETIC COMPOSITIONS INCLUDING SAME” (ISP INVESTMENTS INC., priority 2010, published 2013)", "key": {"dermatopontin [1]": {"test_system": "dermatopontin", "assay": "Dermatopontin immunofluorescence labeling in normal human fibroblast cultures", "assay_type": "cell-based", "conditions": "normal human fibroblasts, peptide 10^−6 M once daily, 24 or 48 hours, vs control conditions", "method": "(§1) The objective of this study is to determine the influence of the SEQ ID No. 5 peptide and of the SEQ ID No. 9 peptide on the expression of dermatopontin in fibroblasts. For this, specific immunofluorescence labelings were performed on normal human fibroblast cultures and on skin kept in culture ex vivo.\nNormal human fibroblasts are cultivated for 24 or 48 hours and treated once daily with a 10^−6M solution of peptide SEQ ID No. 5 or of peptide SEQ ID No. 9. The cells are then washed and fixed with 3.7% formaldehyde for 10 minutes at ambient temperature.\n(§2) The fixed cells or the sections are incubated in the presence of a specific rabbit dermatopontin polyclonal antibody (Proteintech group, Ref: 10537-1-AP), then a secondary antibody, coupled to a fluorescent marker. After mounting in an ad hoc medium, the cells are then examined with an Epi-fluorescence microscope (Nikon Eclipse E600 microscope)."}, "dermatopontin [2]": {"test_system": "dermatopontin", "assay": "Dermatopontin immunofluorescence labeling in human skin kept in culture ex vivo", "assay_type": "cell-based", "conditions": "10^−6 M solution applied topically, 24 or 48 hours", "method": "as §1\nThe human skin samples are placed in culture at the air/liquid interface. A 10^−6M solution of peptide SEQ ID No. 5 or of peptide SEQ ID No. 9 is applied topically, then the samples are incubated for 24 hours or 48 hours. These skin samples are then fixed with formaldehyde then embedded in paraffin or fixed with OCT, by freezing at −20° C. Sections of 3 to 4 μm are then produced (6 μm for the cold sections). The immunolabeling of the samples embedded in paraffin is performed after unmasking specific sites. The immunolabeling of samples embedded in OCT is performed after fixation at 37° C. and with cold acetone.\nas §2"}, "NHEK": {"test_system": "NHEK", "assay": "Ultrastructure (transmission electron microscopy) of keratinocytes in culture", "assay_type": "cell-based, human", "conditions": "10^−6 M, 48 hours, vs untreated control", "method": "(§3) The objective of this study is to observe the subcellular structures of keratinocytes and fibroblasts treated by the SEQ ID No. 5 peptide at 10^−6 M.\n(§4) NHEK or fibroblasts are cultivated in a dish or in a Transwell system, or skins cultivated ex vivo are treated with a 10^−6 M solution of SEQ ID No. 5 peptide for 48 hours (the medium is changed every 24 hours). The skin cells or samples are washed with PBS, then are fixed by Karnosky hypertonic fixation (4% paraformaldehyde, 5% glutaraldehyde in a 0.08M phosphate buffer), 1 hour at ambient temperature, then 24 hours at 4° C. The cells are detached from the substrate by scraping, centrifuged for 5 minutes at 1000 rpm at 4° C. The supernatant is removed and a 0.1 M sodium cacodylate buffer is deposited on the pellet. The cells are mixed with 2% agar then post-fixed by osmium tetroxide for 1 hour. The specimens are then dehydrated by successive passages in an alcohol series (50 to 100%). The skin cells or samples are then coated with a resin. The polymerization is performed for around 12 hours at 60° C. Semi-fine sections of 0.5 μm are performed with the ultra-microtome. The sections are deposited on a subbed slide under heat then stained with toluidine blue. The slides are then dehydrated again and mounted in a suitable medium. […]"}, "fibroblasts": {"test_system": "fibroblasts", "assay": "Ultrastructure (transmission electron microscopy) of fibroblasts in culture", "assay_type": "cell-based", "conditions": "10^−6 M, 48 hours", "method": "as §3, §4"}, "skins cultivated ex vivo": {"test_system": "skins cultivated ex vivo", "assay": "Ultrastructure (transmission electron microscopy) of skins cultivated ex vivo", "assay_type": "cell-based", "conditions": "ex vivo skin cultures, 10^−6 M, 48 hours", "method": "as §3, §4"}, "fibronectin [3]": {"test_system": "fibronectin", "assay": "Fibronectin immunofluorescence labeling in human dermal fibroblast cultures", "assay_type": "cell-based", "conditions": "human dermal fibroblasts, 10^−6 M once daily, vs control cells", "method": "(§5) The objective of this study is to determine the influence of the SEQ ID No. 5 peptide on the expression of fibronectin, a protein of the extracellular matrix synthesized by the fibroblasts. For this, specific immunofluorescence labelings were performed on fibroblast cultures and on ex vivo skin cultures.\nHuman dermal fibroblasts in culture are treated once daily with a 10^−6 solution M of SEQ ID No. 5 peptide (the medium containing the active agent is changed every 24 hours). The cells are then washed and fixed with 3.7% formaldehyde for 10 minutes at ambient temperature.\n(§6) The fixed cells or the sections are incubated in the presence of a specific rabbit fibronectin polyclonal antibody (Sigma, Ref: F-3648), then a secondary antibody, coupled with a fluorescent marker. The cells are then examined with the Epi-fluorescence microscope (Nikon Eclipse E600 microscope)."}, "fibronectin [4]": {"test_system": "fibronectin", "assay": "Fibronectin immunofluorescence labeling in ex vivo human skin cultures", "assay_type": "cell-based", "conditions": "10^−6 M applied topically, 24 or 48 hours", "method": "as §5\nThe human skin samples are placed in culture at the air/liquid interface. A 10^−6 M solution SEQ ID No. 5 peptide or SEQ ID No. 9 peptide is to be applied topically, then the samples are incubated for 24 or 48 hours. These skin samples are then fixed with formaldehyde, then embedded in paraffin or fixed with OCT by freezing at −20° C. Sections of 3 to 4 μm are then produced (6 μm for cold sections). The immunolabeling of the samples embedded in paraffin is performed after unmasking specific sites. The immunolabeling of the samples embedded in OCT is performed after fixation at 37° C. and with cold acetone.\nas §6"}, "collagen I [5]": {"test_system": "collagen I", "assay": "Collagen I immunofluorescence labeling in normal human fibroblast cultures", "assay_type": "cell-based", "conditions": "10^−6 M once per day, 24 or 48 hours, vs control conditions", "method": "(§7) The objective of this study is to determine the influence of the SEQ ID No. 5 peptide on the expression of molecules of the dermal extracellular matrix. For this, the expression of collagens I and III in human fibroblasts obtained from the dermis was studied.\n(§8) Normal human fibroblasts are cultivated for 24 or 48 hours and treated once per day with a 10^−6M solution of SEQ ID No. 5 peptide or SEQ ID No. 9 peptide. The cells are then washed and fixed with formaldehyde at 3.7% for 10 minutes at ambient temperature.\n(§9) The fixed cells or sections are incubated in the presence of a specific rabbit collagen I polyclonal antibody (Rockland, Ref: 600-401-103) or a specific rabbit collagen III polyclonal antibody (Rockland, Ref: 600-401-105), then a secondary antibody coupled to a fluorescent marker. After mounting in an ad hoc medium, the cells are then examined with the Epi-fluorescence microscope (Nikon Eclipse E600 microscope)."}, "collagen I [6]": {"test_system": "collagen I", "assay": "Collagen I immunofluorescence labeling in ex vivo human skin sections", "assay_type": "cell-based", "conditions": "10^−6 M applied topically, 24 or 48 hours, vs control conditions", "method": "(§10) The human skin samples are placed in culture at the air/liquid interface. A 10^−6M solution of SEQ ID No. 5 peptide or SEQ ID No. 9 peptide is applied topically, then the samples are incubated for 24 hours or 48 hours. These skin samples are then fixed with formaldehyde, then embedded in paraffin or fixed with OCT by freezing at −20° C. Sections of 3 to 4 μm are then produced (6 μm for cold sections). The immunolabeling of samples embedded in paraffin is performed after unmasking specific sites. The immunolabeling of the samples embedded in OCT is performed after fixation at 37° C. and with cold acetone.\nas §9"}, "collagen III [7]": {"test_system": "collagen III", "assay": "Collagen III immunofluorescence labeling in normal human fibroblast cultures", "assay_type": "cell-based", "conditions": "10^−6 M once per day, 24 or 48 hours, vs control conditions", "method": "as §7, §8, §9"}, "collagen III [8]": {"test_system": "collagen III", "assay": "Collagen III immunofluorescence labeling in ex vivo human skin sections", "assay_type": "cell-based", "conditions": "10^−6 M applied topically, 24 or 48 hours, vs control conditions", "method": "as §10, §9"}, "[9]": {"test_system": "elastic fibers present in the dermis", "assay": "Elastic fiber staining (Elastika van Gieson) of ex vivo human skin irradiated by UVA", "assay_type": "cell-based", "conditions": "10^−6 M topically 48 hours before UVA 5 J/cm^2, vs untreated irradiated controls", "method": "The objective of this study is to determine the influence of the SEQ ID No. 5 peptide on the elastic fibers present in the dermis. To do this, specific staining of the elastic fibers was performed on skin samples cultivated ex vivo.\nHuman skin samples are placed in culture at the air/liquid interface. A 10^−6 M solution of SEQ ID No. 5 peptide is applied topically, then the samples are incubated for 48 hours before being irradiated by UVA at 5 J/cm^2. Untreated irradiated controls are produced in parallel.\nThese skin samples are then fixed with formaldehyde, then embedded in paraffin. Sections of 4 μm are then produced. These skin sections are successively removed from the paraffin, then rehydrated in different xylene and alcohol baths. the elastin fibers are stained using an Elastika van Gieson staining kit (VWR, Ref: 1.15974). The stained skin sections are dehydrated then mounted in the Eukitt mounting medium and observed under a microscope."}, "[10]": {"test_system": "normal human keratinocytes (NHEK)", "assay": "Ibidi in vitro healing model (gap filling), keratinocytes", "assay_type": "cell-based", "from_the_text": "(§11) The objective of this study is to determine the regenerating effect of the SEQ ID No. 5 peptide on dermal fibroblasts and normal human keratinocytes (NHEK). To do this, the Ibidi in vitro healing model (Integrated Bio Diagnostics, Munich, Germany) was used.\n(§12) This test consists of maintaining a cell-free area at the middle of a cell layer and of evaluating the time taken by the cells arranged on either side of the “scar” to migrate or proliferate and fill the gap. The self-adhesive silicone culture inserts are placed at the base of a well of a culture plate. These inserts have the special feature of being comprised of two distinct chambers separated by an impermeable membrane with a thickness of 500 μm. Each of the two chambers is seeded with cells of the same cell type and cultivated until confluency. The insert is then removed with sterile tweezers, creating an acellular area 400 μm wide between the two cell layers. The cells are then treated with a 10^−6 M or a 3×10^−6M solution of SEQ ID No. 5 peptide added to the culture medium, with renewal of the peptide every 24 hours. Phase-contrast microscopy observations (Olympus CK40 microscope X5 connected to an Olympus E-510 camera) were performed at different times (0, 6, 24, 30 and 48 hours) until the proliferation and migration process results in the filling of the gap."}, "dermal fibroblasts": {"test_system": "dermal fibroblasts", "assay": "Ibidi in vitro healing model (gap filling), fibroblasts", "assay_type": "cell-based, human", "from_the_text": "as §11, §12"}}, "note": "“Also recorded” adds a separate entry of the source. Ends that are not written are not given here."}
{"substance": "Arg-Glu-Trp-Gln-Phe-Tyr-Cys(Cys)-(NH2) [SEQ ID No. 5]", "values": [{"measurement": "expression of dermatopontin (immunofluorescence)", "setting": "dermatopontin [1]", "value": "more intense fluorescence; also recorded: very substantially stimulate the expression of dermatopontin"}, {"measurement": "expression of dermatopontin (immunofluorescence)", "setting": "dermatopontin [2]", "value": "more intense fluorescence at the dermis"}, {"measurement": "intercellular contacts between keratinocytes (ultrastructure)", "setting": "NHEK; cultures in a TRANSWELL system", "value": "more cohesive"}, {"measurement": "organelles / mitochondria in keratinocytes (ultrastructure)", "setting": "NHEK; keratinocytes in culture", "value": "enrichment in organelles, and in particular mitochondria; also recorded: increase in the density of mitochondria"}, {"measurement": "caveolar bodies, rough endoplasmic reticulum and Golgi apparatus (ultrastructure)", "setting": "fibroblasts; vs control cells", "value": "substantially more developed"}, {"measurement": "secretion / synthesis of components of the extracellular matrix (ultrastructure)", "setting": "fibroblasts; vs untreated control cells", "value": "more intense secretion of components of the extracellular matrix; also recorded: increase in the synthesis of components of the extracellular matrix"}, {"measurement": "cellular contacts between the cells of the basal layer (ultrastructure)", "setting": "skins cultivated ex vivo", "value": "narrower cellular contacts between the cells of the basal layer; also recorded: increases the intercellular contacts of the basal keratinocytes"}, {"measurement": "expression of fibronectin (immunofluorescence)", "setting": "fibronectin [3]", "value": "more intense cytoplasmic fluorescence; also recorded: very substantially stimulates the expression of fibronectin"}, {"measurement": "densification of the area supporting the dermoepidermal junction (fibronectin immunofluorescence)", "setting": "fibronectin [4]", "value": "stimulates the densification of the area supporting the dermoepidermal junction"}, {"measurement": "expression of collagen I (immunofluorescence)", "setting": "collagen I [5]", "value": "more intense fluorescence; also recorded: increases the expression of collagen I"}, {"measurement": "expression of collagen I (immunofluorescence)", "setting": "collagen I [6]", "value": "more intense fluorescence"}, {"measurement": "expression of collagen III (immunofluorescence)", "setting": "collagen III [7]", "value": "more intense fluorescence; also recorded: increases the expression"}, {"measurement": "expression of collagen III (immunofluorescence)", "setting": "collagen III [8]", "value": "more intense fluorescence"}, {"measurement": "degradation of the elastic fibers after UV irradiation", "setting": "[9]", "value": "less degradation of the elastic fibers; also recorded: preserves the elastic fibers"}, {"measurement": "organization of the elastic fibers after UV irradiation", "setting": "[9]", "value": "better preservation of the organization of the elastic fibers"}, {"measurement": "gap filling / proliferation and migration by comparison with control conditions", "setting": "[10]; NHEK cultivated in the presence of the peptide", "value": "filled the gap faster; also recorded: stimulates the proliferation and migration"}, {"measurement": "time to total filling of the gap", "setting": "[10]; human keratinocytes, 10^−6 M, 400 μm gap, control gap not yet filled at the same time", "value": 30, "unit": "h"}, {"measurement": "dose dependence of gap filling", "setting": "[10]; keratinocytes, 3×10^−6 M compared with 10^−6 M", "value": "the gap fills faster"}, {"measurement": "gap filling / proliferation and migration by comparison with control conditions", "setting": "dermal fibroblasts; fibroblasts cultivated in the presence of the peptide", "value": "filled the gap faster; also recorded: stimulates the proliferation and migration"}, {"measurement": "dose dependence of gap filling", "setting": "dermal fibroblasts; fibroblasts, 3×10^−6 M compared with 10^−6 M", "value": "the gap fills faster"}, {"measurement": "time to total filling of the gap", "setting": "dermal fibroblasts; human fibroblasts, 10^−6 M, 400 μm gap, control gap not yet filled at the same time", "value": 48, "unit": "h"}]}
{"substance": "Asp-Arg-Glu-Trp-Gln-Phe-Tyr-Cys-NH2 (DREWQFYC-NH2) [SEQ ID No. 9]", "values": [{"measurement": "expression of dermatopontin (immunofluorescence)", "setting": "dermatopontin [1]", "value": "more intense fluorescence; also recorded: very substantially stimulate the expression of dermatopontin"}, {"measurement": "expression of dermatopontin (immunofluorescence)", "setting": "dermatopontin [2]", "value": "more intense fluorescence at the dermis"}]}
